Tested on: 935938-334-R-J1-PDC complex spheroid viability
Assay: Anticancer human tumor 935938-334-R-J1-PDC patient-derived small intestine adenocarcinoma cell line growth inhibition [POLQ]
Conditions: for IC50: curve of first compound; for viability, T/C: stronger effect = lower value
Method in brief: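 PDC + HUVEC + MSC complex spheroids; POLQ inhibitors ± partner drugs; top conc. at/near clinical Cmax, else 10 microM (SN-38 1 microM), half-log dilutions; 37 degrees C, 5% CO2.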

[1] = second compound 0.0316 µM, first compound 0.00316 µM
[2] = second compound 0.0316 µM, first compound 0.01 µM
[3] = second compound 0.0316 µM, first compound 0.0316 µM
[4] = second compound 0.0316 µM, first compound 0.1 µM
[5] = second compound 0.0316 µM, first compound 0.316 µM
[6] = second compound 0.0316 µM, first compound 1 µM
[7] = second compound 0.1 µM, first compound 0.00316 µM
[8] = second compound 0.1 µM, first compound 0.01 µM
[9] = second compound 0.1 µM, first compound 0.0316 µM
[10] = second compound 0.1 µM, first compound 0.1 µM
[11] = second compound 0.1 µM, first compound 0.316 µM
[12] = second compound 0.1 µM, first compound 1 µM
[13] = second compound 0.316 µM, first compound 0.00316 µM
[14] = second compound 0.316 µM, first compound 0.01 µM
[15] = second compound 0.316 µM, first compound 0.0316 µM
[16] = second compound 0.316 µM, first compound 0.1 µM
[17] = second compound 0.316 µM, first compound 0.316 µM
[18] = second compound 0.316 µM, first compound 1 µM
[19] = second compound 1 µM, first compound 0.00316 µM
[20] = second compound 1 µM, first compound 0.01 µM
[21] = second compound 1 µM, first compound 0.0316 µM
[22] = second compound 1 µM, first compound 0.1 µM
[23] = second compound 1 µM, first compound 0.316 µM
[24] = second compound 1 µM, first compound 1 µM
[25] = second compound 3.16 µM, first compound 0.00316 µM
[26] = second compound 3.16 µM, first compound 0.01 µM
[27] = second compound 3.16 µM, first compound 0.0316 µM
[28] = second compound 3.16 µM, first compound 0.1 µM
[29] = second compound 3.16 µM, first compound 0.316 µM
[30] = second compound 3.16 µM, first compound 1 µM
[31] = second compound 10 µM, first compound 0.00316 µM
[32] = second compound 10 µM, first compound 0.01 µM
[33] = second compound 10 µM, first compound 0.0316 µM
[34] = second compound 10 µM, first compound 0.1 µM
[35] = second compound 10 µM, first compound 0.316 µM
[36] = second compound 10 µM, first compound 1 µM
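Also: spheroids exposed to drugs for seven days before viability read.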
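For viability, T/C in this document: 100% = DMSO vehicle control wells.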

## CCc1c2c(nc3ccc(O)cc13)-c1cc3c(c(=O)n1C2)COC(=O)[C@]3(O)CC + COC1C(OC(N)=O)C(O)C(Oc2ccc3c(O)c(NC(=O)c4ccc(O)c(CC=C(C)C)c4)c(=O)oc3c2C)OC1(C)C
Second compound 0.0316 µM
  IC50: 16.6 nM
Second compound 0.1 µM
  IC50: 22.6 nM
Second compound 0.316 µM
  IC50: 17.8 nM
Second compound 1 µM
  IC50: 18.2 nM
Second compound 3.16 µM
  IC50: 13.9 nM
Second compound 10 µM
  IC50: 5.3 nM
[1]
  viability, T/C: 82%
[2]
  viability, T/C: 59.3%
[3]
  viability, T/C: 38%
[4]
  viability, T/C: 29.4%
[5]
  viability, T/C: 22.9%
[6]
  viability, T/C: 27.8%
[7]
  viability, T/C: 75.8%
[8]
  viability, T/C: 73.7%
[9]
  viability, T/C: 40.1%
[10]
  viability, T/C: 29.6%
[11]
  viability, T/C: 28.7%
[12]
  viability, T/C: 30.5%
[13]
  viability, T/C: 68%
[14]
  viability, T/C: 63.8%
[15]
  viability, T/C: 36.2%
[16]
  viability, T/C: 27.3%
[17]
  viability, T/C: 29%
[18]
  viability, T/C: 22.4%
[19]
  viability, T/C: 62.9%
[20]
  viability, T/C: 76.8%
[21]
  viability, T/C: 31.5%
[22]
  viability, T/C: 26.8%
[23]
  viability, T/C: 29.3%
[24]
  viability, T/C: 22.9%
[25]
  viability, T/C: 73.1%
[26]
  viability, T/C: 57.4%
[27]
  viability, T/C: 31.6%
[28]
  viability, T/C: 30.2%
[29]
  viability, T/C: 27.8%
[30]
  viability, T/C: 28.4%
[31]
  viability, T/C: 53.2%
[32]
  viability, T/C: 49.2%
[33]
  viability, T/C: 34.2%
[34]
  viability, T/C: 30.1%
[35]
  viability, T/C: 31.8%
[36]
  viability, T/C: 31.3%

## C=CCn1c(=O)c2cnc(Nc3ccc(N4CCN(C)CC4)cc3)nc2n1-c1cccc(C(C)(C)O)n1 + Cc1cccc(N(C)C(=O)C2C(O)CCN2c2nc(C)cc(C(F)(F)F)c2C#N)c1
Second compound 0.0316 µM
  IC50: 591 nM
Second compound 0.1 µM
  IC50: 500 nM
Second compound 0.316 µM
  IC50: 513 nM
Second compound 1 µM
  IC50: 669 nM
Second compound 3.16 µM
  IC50: 595 nM
Second compound 10 µM
  IC50: 516 nM
[1]
  viability, T/C: 86.3%
[2]
  viability, T/C: 67.3%
[3]
  viability, T/C: 80%
[4]
  viability, T/C: 85.8%
[5]
  viability, T/C: 77.8%
[6]
  viability, T/C: 26.6%
[7]
  viability, T/C: 93%
[8]
  viability, T/C: 87.5%
[9]
  viability, T/C: 97%
[10]
  viability, T/C: 107%
[11]
  viability, T/C: 66%
[12]
  viability, T/C: 25.7%
[13]
  viability, T/C: 90.4%
[14]
  viability, T/C: 110%
[15]
  viability, T/C: 83.6%
[16]
  viability, T/C: 95.9%
[17]
  viability, T/C: 67.8%
[18]
  viability, T/C: 25.5%
[19]
  viability, T/C: 94.8%
[20]
  viability, T/C: 98.6%
[21]
  viability, T/C: 106%
[22]
  viability, T/C: 104%
[23]
  viability, T/C: 92.1%
[24]
  viability, T/C: 27%
[25]
  viability, T/C: 69.9%
[26]
  viability, T/C: 112%
[27]
  viability, T/C: 74.9%
[28]
  viability, T/C: 87.7%
[29]
  viability, T/C: 78.4%
[30]
  viability, T/C: 26.2%
[31]
  viability, T/C: 103%
[32]
  viability, T/C: 101%
[33]
  viability, T/C: 88.7%
[34]
  viability, T/C: 96.4%
[35]
  viability, T/C: 72.2%
[36]
  viability, T/C: 19.6%

— PubChem BioAssay AID1963829 (Molecular Pharmacology Branch, DTP, NCI, 2024)
